# “Also recorded” adds a separate entry of the source.
# Legend:
# [1] = system: sound-induced seizures; experiment: Frings audiogenic seizure (AGS)-susceptible mouse model; type: in vivo, mice; details: ip, 2 h, read-out: ED50, protection from sound induced seizures
# Procedure: Frings audiogenic seizure (AGS)-susceptible mice are genetically susceptible to sound-induced seizures (Frings et al., 1953). A colony of AGS mice is maintained by the ASP at the University of Utah. Groups of 8 female mice (weighing 18-25 g) were treated i.p. with increasing doses of SKA-19. At the TPE in the MES test, mice were exposed to a sound stimulus of 110 decibels (11 KHz) delivered for 20 s.
# [2] = system: CA1 pyramidal neurons; experiment: Hippocampal slice recordings; type: cell-based, mouse; details: for effect on AP firing: 1-s 150-pA current injection
# Procedure: Brain slice preparation was approved by the University of California, Irvine, Institutional Animal Care and Use Committee. Male C57BL/6 J mice (postnatal day 23) were anesthetized with halothane, decapitated, and brains transferred to an ice-cold, sucrose artificial cerebral spinal fluid (ACSF; Sigma-Aldrich). Hippocampal slices (300 μm) were prepared using a Leica VT1200S vibrating blade microtome (Leica Microsystems Inc., Buffalo Grove, Ill.). Slices were incubated at 33° C. in oxygenated (95% O2, 5% CO2) standard ACSF containing the following (mM) for at least 1 h before recordings: 126 NaCl, 2.5 KCl, 1.25 NaHPO4, 1.2 MgSO4, 10 glucose, 1.2 CaCl2, and 26 NaHCO3. Slices were submerged and continuously perfused at 2 ml/min with oxygenated ACSF at 33° C. during the current-clamp experiments. Voltage-clamp experiments were performed in the same ACSF but with 1 mM tetraethylammonium chloride (Sigma-Aldrich) and 0.5 μM tetrodotoxin (Sigma-Aldrich) added. Pyramidal CA1 neurons were visualized and identified with an upright microscope (Zeiss Axioskop Plus; Zeiss Jena, Germany) with infrared differential interference contrast optics. Recording pipettes (2-5 MΩ) were filled with intracellular solution containing (in mM): 126 K-gluconate; 4 KCl; 10 HEPES; 2 Mg-adenosine triphosphate; 0.3 Tris-guanosine triphosphate; 10 phosphocreatine, pH 7.20, 270-290 mOsm. In the current-clamp mode, depolarizing current pulses were applied from a membrane potential of −65 mV to evoke tonic firing activity. In the voltage-clamp mode, neurons were held at −55 mV and KCa currents elicited by 50-ms voltage steps to 10 mV, applied every 10 s. SKA-19 or NS309 were perfused for 10 min into the bath to allow for equilibrium. Recordings were performed in the whole-cell mode using a MultiClamp 700B amplifier (Molecular Devices), […] and sampled at 20 kHz with a Digidata 1322A digitizer (Molecular Devices). Data were acquired and analyzed with pClamp 10.2 software (Molecular Devices).
# [3] = target: KCa2.2 (SK2) (Rattus norvegicus, UniProt P70604); experiment: Whole-cell patch-clamp, KCa2.2; type: cell-based, human; details: 250 nM free intracellular Ca2+
# Procedure: HEK-293 or COS-7 cells stably expressing hKCa2.1, rKCa2.2, and hKCa2.3 have been described previously (Sankaranarayanan et al., 2009). Cells were held at −80 mV and KCa currents elicited by dialysis with a K^+ aspartate based internal containing 250 nM free Ca^2+ (pH 7.2, 290 mOsm, pipette resistance 1.5 MΩ). To reduce currents from native chloride channels, Na^+ aspartate Ringer was used as an external solution. KCa2 currents were recorded with 200-ms voltage ramps from −120 to +40 mV applied every 10 s, and the fold increase of slope conductance at −80 mV by drug was taken as a measure of channel activation. Data analysis, fitting, and plotting were performed with IGOR-Pro (Wavemetrics, Lake Oswego, Oreg., USA) and Origin 9.0 (OriginLab, Northampton, Mass., USA).
# [4] = target: Nav1.3 (Homo sapiens (Human), UniProt Q9NY46); experiment: Voltage-clamp, Nav1.3; type: cell-based; details: read-out: EC50 or IC50, Nav1.3
# Sequence of Nav1.3 (Q9NY46 whole entry): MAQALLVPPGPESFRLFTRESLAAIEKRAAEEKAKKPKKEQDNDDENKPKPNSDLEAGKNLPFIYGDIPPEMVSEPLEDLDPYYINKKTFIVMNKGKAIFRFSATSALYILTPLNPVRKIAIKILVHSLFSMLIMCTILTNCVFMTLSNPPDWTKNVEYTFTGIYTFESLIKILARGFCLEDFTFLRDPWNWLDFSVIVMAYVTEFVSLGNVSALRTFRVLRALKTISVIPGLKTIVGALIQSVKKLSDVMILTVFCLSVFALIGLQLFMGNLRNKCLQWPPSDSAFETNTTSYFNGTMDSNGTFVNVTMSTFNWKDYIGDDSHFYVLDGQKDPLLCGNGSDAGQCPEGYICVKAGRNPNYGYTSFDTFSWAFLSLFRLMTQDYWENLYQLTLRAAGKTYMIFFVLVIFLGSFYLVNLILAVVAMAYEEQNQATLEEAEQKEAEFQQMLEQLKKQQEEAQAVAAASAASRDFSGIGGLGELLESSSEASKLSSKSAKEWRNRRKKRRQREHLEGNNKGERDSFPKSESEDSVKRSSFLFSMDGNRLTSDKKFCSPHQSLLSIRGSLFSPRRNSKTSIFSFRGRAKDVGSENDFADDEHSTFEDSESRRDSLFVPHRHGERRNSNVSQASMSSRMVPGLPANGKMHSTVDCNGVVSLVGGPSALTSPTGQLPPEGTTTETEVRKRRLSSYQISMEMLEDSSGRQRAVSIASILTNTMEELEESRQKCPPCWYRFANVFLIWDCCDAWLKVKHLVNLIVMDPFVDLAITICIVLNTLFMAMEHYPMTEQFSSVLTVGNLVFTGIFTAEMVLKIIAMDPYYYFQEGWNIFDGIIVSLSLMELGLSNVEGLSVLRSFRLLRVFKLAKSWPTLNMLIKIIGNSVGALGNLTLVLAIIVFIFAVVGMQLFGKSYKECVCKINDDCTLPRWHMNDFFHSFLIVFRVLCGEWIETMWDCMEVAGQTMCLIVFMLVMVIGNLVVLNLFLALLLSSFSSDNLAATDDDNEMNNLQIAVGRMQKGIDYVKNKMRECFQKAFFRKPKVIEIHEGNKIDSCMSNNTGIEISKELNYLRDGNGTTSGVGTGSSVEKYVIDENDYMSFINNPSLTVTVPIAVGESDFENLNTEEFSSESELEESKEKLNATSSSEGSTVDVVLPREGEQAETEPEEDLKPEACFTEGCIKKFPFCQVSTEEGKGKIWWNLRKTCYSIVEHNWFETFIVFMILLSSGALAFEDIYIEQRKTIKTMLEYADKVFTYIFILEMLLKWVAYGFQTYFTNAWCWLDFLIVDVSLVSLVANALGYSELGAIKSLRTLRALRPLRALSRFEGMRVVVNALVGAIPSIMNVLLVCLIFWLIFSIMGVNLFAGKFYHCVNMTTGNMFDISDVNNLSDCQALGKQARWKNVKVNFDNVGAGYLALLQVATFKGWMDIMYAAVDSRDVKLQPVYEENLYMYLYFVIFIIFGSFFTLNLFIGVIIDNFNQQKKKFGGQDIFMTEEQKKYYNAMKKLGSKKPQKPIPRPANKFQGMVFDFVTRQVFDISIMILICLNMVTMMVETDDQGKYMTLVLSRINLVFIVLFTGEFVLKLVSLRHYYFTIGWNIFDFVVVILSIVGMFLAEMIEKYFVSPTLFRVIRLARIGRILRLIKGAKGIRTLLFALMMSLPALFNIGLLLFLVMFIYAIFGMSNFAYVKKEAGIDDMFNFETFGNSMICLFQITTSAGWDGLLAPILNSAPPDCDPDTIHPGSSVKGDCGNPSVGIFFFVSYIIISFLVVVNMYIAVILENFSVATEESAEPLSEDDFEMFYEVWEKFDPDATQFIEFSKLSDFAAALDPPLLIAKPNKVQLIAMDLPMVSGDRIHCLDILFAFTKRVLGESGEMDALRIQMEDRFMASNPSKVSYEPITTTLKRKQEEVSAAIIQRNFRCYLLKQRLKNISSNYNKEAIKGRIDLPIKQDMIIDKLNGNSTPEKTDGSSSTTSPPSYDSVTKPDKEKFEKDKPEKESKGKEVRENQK
# [5] = target: Nav1.7 (Homo sapiens (Human), UniProt Q15858); experiment: Voltage-clamp, Nav1.7 in HEK-293 cells; type: cell-based
# Sequence of Nav1.7 (Q15858 whole entry): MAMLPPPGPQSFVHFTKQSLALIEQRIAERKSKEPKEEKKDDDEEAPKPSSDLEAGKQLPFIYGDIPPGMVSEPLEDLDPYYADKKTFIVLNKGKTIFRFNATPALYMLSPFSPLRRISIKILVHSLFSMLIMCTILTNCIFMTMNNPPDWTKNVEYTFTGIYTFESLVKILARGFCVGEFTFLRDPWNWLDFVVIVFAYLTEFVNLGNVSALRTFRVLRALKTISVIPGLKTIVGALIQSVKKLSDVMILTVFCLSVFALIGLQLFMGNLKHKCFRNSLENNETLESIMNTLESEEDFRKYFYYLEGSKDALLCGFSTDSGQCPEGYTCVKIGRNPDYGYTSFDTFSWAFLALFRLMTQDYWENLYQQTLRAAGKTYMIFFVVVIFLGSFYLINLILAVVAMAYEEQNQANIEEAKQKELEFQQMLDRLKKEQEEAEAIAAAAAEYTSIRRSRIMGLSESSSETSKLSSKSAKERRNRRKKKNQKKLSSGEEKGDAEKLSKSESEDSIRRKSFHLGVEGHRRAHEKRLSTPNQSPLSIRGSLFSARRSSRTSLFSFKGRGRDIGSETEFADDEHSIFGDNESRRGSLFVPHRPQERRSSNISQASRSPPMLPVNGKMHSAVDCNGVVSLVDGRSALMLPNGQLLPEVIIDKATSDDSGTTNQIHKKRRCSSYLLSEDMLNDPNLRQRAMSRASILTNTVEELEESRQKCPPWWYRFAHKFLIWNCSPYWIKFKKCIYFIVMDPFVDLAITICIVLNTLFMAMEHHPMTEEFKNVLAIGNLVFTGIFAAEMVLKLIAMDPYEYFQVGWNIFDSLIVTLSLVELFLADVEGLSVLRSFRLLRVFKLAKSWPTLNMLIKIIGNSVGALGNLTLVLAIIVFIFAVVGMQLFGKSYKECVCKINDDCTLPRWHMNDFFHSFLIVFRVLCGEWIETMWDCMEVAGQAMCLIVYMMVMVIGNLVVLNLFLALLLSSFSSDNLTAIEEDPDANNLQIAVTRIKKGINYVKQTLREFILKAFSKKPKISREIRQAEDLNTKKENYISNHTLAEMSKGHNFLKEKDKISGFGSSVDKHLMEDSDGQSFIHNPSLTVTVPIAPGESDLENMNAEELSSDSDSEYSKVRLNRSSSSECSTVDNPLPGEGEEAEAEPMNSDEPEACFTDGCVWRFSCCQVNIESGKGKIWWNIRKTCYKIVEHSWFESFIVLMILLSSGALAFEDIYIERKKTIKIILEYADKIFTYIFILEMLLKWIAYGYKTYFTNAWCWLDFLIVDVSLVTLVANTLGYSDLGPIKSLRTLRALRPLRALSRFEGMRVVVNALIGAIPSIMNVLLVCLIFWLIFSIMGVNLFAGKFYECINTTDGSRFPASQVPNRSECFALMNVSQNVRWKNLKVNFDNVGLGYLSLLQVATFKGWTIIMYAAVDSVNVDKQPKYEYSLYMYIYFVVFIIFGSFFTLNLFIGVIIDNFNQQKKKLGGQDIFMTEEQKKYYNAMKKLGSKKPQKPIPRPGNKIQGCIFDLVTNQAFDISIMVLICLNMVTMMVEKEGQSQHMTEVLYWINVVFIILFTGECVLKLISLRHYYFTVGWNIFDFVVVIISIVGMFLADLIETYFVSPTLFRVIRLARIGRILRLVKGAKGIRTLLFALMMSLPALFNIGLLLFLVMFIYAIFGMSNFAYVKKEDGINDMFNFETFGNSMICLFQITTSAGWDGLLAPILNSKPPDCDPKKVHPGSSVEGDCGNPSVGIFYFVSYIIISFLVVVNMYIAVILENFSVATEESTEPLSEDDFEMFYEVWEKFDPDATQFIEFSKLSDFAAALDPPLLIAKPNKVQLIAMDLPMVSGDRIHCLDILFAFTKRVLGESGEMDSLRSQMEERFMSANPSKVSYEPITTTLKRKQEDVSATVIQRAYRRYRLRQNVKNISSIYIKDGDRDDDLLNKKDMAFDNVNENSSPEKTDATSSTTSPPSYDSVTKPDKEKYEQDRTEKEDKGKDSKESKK
# Procedure: All experiments were conducted at room temperature (22-24° C.) with an EPC-10 amplifier and Pulse software (HEKA, Lambrecht/Pfalz, Germany) in the whole-cell mode of the patch-clamp technique. Human embryonic kidney (HEK)-293 cell lines stably expressing hNav1.1, hNav1.5, hNav1.7 channels (generously provided by Dr. Christopher Lossin, University of California Davis), hNav1.4 (Frank Lehmann-Horn, University of Ulm), or hKv2.1 channels (James Trimmer, University of California Davis) were bathed in extracellular solution containing (in mM): 160 NaCl; 4.5 KCl; 1 MgCl2; 2 CaCl2; 10 HEPES [pH was adjusted to 7.4 using NaOH (310 mOsm)]. Pipettes were filled with intracellular solution containing (in mM): 145 KF; 2 MgCl2; 10 ethylene glycol tetraacetic acid; 10 HEPES (pH adjusted to 7.2 with KOH; 300 mOsm). Neuroblastoma N1E-115 cells (ATCC, Manassa, Va., USA) expressing Nav1.2 were patched with a CsF internal solution consisting of (in mM): 10 NaF; 110 CsF; 20 CsCl; 2 ethylene glycol tetraacetic acid; 10 HEPES (CsOH to pH 7.35; 300 mOsm). All pipette tip resistances were 2-4 MΩ. Series resistances of 3-10 MΩ were compensated 40-80%. All cells were voltage-clamped to a holding potential of −90 mV unless otherwise specified. The sampling frequency was 5 kHz. Na^+ currents were elicited by 30-ms pulse to 0 mV from −90 mV applied every 10 s. […]
# [6] = ASP toxicity studies (species not stated); type: in vivo; details: 200 mg/kg
smiles,measurement,setting,value
"Nc1nc2ccc(SC(F)(F)F)cc2s1 [SKA-19, 6-((trifluoromethyl)thio)benzo[d]thiazol-2-amine]",ED50,[1],2.15 mg/kg
same,effect on AP firing,[2]; 1 μM,slowed down AP firing
same,reduction of the number of spikes,"[2]; 10 μM, all injected current levels",roughly 50%
same,after-hyperpolarization amplitude of individual APs,"[2]; 10 μM, current-clamp",increase in after-hyperpolarization amplitude
same,effect on AP firing,[2]; 25 μM,completely suppressed
same,mAHP current amplitude,"[2]; voltage-clamp, 10 μM",modest but significant increase; also recorded: increases the amplitude
same,EC50,"[3]; read-out: EC50 or IC50, KCa2.2",14 µM
same,maximal increase of KCa2 currents,[3]; stated for KCa2 currents,30 fold
same,IC50,[4],2.2 ± 1.1 µM
same,block of Nav1.7,[5],low micromolar range
same,duration of sedation and neurological impairment,[6],up to 24 h
